Source: ChEMBL document CHEMBL5096222, “Discovery of a Trifluoromethoxy Cyclopentanone Benzothiazole Receptor-Interacting Protein Kinase 1 Inhibitor as the Treatment for Alzheimer's Disease” (J Med Chem, 2022)

How the values were obtained:
[1] = Cytotoxicity against human HT-29 cells assessed as reduction in cell viability by celltiter-glo luminescent cell viability assay; assay type: toxicity, cell-based
HT-29 = test: Anti-necroptotic activity in TSZ induced human HT-29 cells assessed as increase in cell viability pretreated with compound followed by TSZ stimulation and measured after 16 hrs by celltiter-glo luminescent cell viability assay; assay type: functional, cell-based
[2] = biological target: Receptor-interacting serine/threonine-protein kinase 3 (Homo sapiens, UniProt Q9Y572); test: Binding affinity to recombinant human wild type partial length RIPK3 (M1 to Q307 residues) expressed in bacterial expression system by KINOMEscan TM assay
Receptor-interacting serine/threonine-protein kinase 3, sequence (Q9Y572 whole entry, the tested form may be a part): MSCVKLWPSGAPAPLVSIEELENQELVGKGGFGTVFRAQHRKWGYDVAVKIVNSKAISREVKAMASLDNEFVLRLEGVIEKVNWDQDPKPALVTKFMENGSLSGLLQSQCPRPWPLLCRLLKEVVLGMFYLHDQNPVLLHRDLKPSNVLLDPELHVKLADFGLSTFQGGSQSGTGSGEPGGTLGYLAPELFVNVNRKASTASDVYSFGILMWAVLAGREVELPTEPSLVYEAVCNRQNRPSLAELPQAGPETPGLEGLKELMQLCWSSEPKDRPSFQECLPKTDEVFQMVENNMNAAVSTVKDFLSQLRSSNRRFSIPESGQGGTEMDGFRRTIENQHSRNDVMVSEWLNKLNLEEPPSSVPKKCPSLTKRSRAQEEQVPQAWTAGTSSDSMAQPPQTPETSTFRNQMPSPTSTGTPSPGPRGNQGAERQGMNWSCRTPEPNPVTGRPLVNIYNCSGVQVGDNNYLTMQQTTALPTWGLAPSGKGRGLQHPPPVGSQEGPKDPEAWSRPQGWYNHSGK

[3] = biological target: T1, Receptor-interacting serine/threonine-protein kinase 1 (Homo sapiens, UniProt Q13546); test: Binding affinity to recombinant human wild type partial length RIPK1 (M1 to K305 residues) expressed in bacterial expression system by KINOMEscan TM assay
T1 sequence (Q13546 whole entry): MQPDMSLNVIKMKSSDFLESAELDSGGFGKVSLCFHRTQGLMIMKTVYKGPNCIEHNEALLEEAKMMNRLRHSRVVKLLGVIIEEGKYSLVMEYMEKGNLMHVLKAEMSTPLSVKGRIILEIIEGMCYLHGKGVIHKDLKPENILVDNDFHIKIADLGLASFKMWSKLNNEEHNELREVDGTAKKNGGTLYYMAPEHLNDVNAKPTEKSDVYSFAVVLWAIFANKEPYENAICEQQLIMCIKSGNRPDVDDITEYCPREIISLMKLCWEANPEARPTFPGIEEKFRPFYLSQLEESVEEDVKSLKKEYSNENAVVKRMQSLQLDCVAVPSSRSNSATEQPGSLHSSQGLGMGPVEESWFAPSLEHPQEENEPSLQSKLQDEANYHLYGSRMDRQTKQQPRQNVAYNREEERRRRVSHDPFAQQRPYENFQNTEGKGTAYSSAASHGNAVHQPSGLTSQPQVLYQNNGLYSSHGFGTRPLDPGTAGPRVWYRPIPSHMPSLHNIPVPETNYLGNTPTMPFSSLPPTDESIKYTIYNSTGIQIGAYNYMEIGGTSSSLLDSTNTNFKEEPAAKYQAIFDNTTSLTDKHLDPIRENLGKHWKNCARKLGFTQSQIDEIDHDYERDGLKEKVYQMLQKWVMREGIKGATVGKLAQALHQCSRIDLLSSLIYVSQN

Kd [2] [nM]	Kd [3] [nM]	SMILES	CC50 [1] [µM]	EC50 (HT-29) [nM]
120	49	O=C(Cc1cccc(OC(F)(F)F)c1)Nc1cc(Oc2cc3nc(NC(=O)C4CC4)sc3cc2F)ccc1F	> 50	82
> 5000	12	O=C(Cc1cccc(OC(F)(F)F)c1)Nc1cc(Oc2cc3nc(NC(=O)C4CCOC4)sc3cc2F)ccc1F (stereo not drawn)	> 50	13
